Data from patent US11613547B2 (priority 2019, dated 2023).
Like-named read-outs stand apart in the source and are kept apart here.

Tests used:
mMOR [1] = molecular target: T1, mMOR (Mus musculus, UniProt P42866); test: [35S]GTPγS functional assay, mMOR; assay type: biochemical; settings: for EC50: nM ± SEM
T1 construct: expressed in transfected cells

mKOR [2] = molecular target: T2, mKOR (Mus musculus, UniProt P33534); test: Radioligand competition binding ([125I]IBNtxA), CHO membranes, mKOR; settings: vs 125IBNtxA (0.1 nM), mean ± SEM
T2 construct: expressed in transfected cells

[3] = molecular target: T3, mouse mu opioid receptor (mMOR) (Mus musculus, UniProt P42866); test: cell-based; assay type: cell-based; settings: for EC50: read-out: Gi EC50 mMOR
T3 construct: expressed in transfected cells; host or cells: HEK-293T, transient (PEI), with BRET sensor cDNAs

[4] = molecular target: T4, mouse delta opioid receptor (mDOR) (Mus musculus, UniProt P32300); test: BRET assay, G-protein activation, mDOR; assay type: cell-based
T4 construct: expressed in transfected cells; host or cells: HEK-293T, transient (PEI), with BRET sensor cDNAs

mDOR [5] = molecular target: T5, mDOR (Mus musculus, UniProt P32300); test: [35S]GTPγS functional assay, mDOR; assay type: biochemical; settings: for EC50: nM ± SEM
T5 construct: expressed in transfected cells

hMOR [6] = molecular target: T6, hMOR (Homo sapiens, UniProt P35372); test: Tango β-arrestin recruitment assay, hMOR; assay type: cell-based
T6 construct: expressed in transfected cells; host or cells: HEK 293T (ATCC CRL-11268), transient

mMOR [7] = molecular target: T1, mMOR; test: Radioligand competition binding ([125I]IBNtxA), CHO membranes, mMOR; settings: vs 125IBNtxA (0.1 nM), mean ± SEM
hDOR [8] = molecular target: T7, hDOR (Homo sapiens, UniProt P41143); test: Tango β-arrestin recruitment assay, hDOR; assay type: cell-based; parameters: expressed in transfected cells; host or cells: HTLA cells expressing TEV fused-beta-Arrestin2
mKOR [9] = molecular target: T2, mKOR; test: [35S]GTPγS functional assay, mKOR; assay type: biochemical; settings: for EC50: nM ± SEM
[10] = molecular target: T8, rat kappa opioid receptor (rKOR) (Rattus norvegicus, UniProt P34975); test: BRET assay, arrestin recruitment, rKOR; assay type: cell-based; settings: BRET
T8 construct: expressed in transfected cells; host or cells: HEK-293T, transient (PEI), with BRET sensor cDNAs

[11] = molecular target: T4, mouse delta opioid receptor (mDOR); test: BRET assay, arrestin recruitment, mDOR; assay type: cell-based; settings: mDOR, BRET
[12] = molecular target: T8, rat kappa opioid receptor (rKOR); test: BRET assay, G-protein activation, rKOR; assay type: cell-based
hDOR [13] = molecular target: T7, hDOR; test: cAMP inhibition assay, hDOR; assay type: cell-based; parameters: expressed in transfected cells
hKOR [14] = molecular target: T9, hKOR (Homo sapiens, UniProt P41145); test: Tango β-arrestin recruitment assay, hKOR; assay type: cell-based; settings: for Arrestin pEC50±SEM hKOR / EC50: WT-hKOR
T9 construct: expressed in transfected cells; host or cells: HEK 293T (ATCC CRL-11268), transient

hKOR [15] = molecular target: T9, hKOR; test: cAMP inhibition assay (GloSensor, HEK 293T), hKOR; assay type: cell-based; settings: for Bias factor toward G protein, hKOR: cAMP inhibition vs Tango, against U50,488H as control
hMOR [16] = molecular target: T6, hMOR; test: cell-based; assay type: cell-based; settings: for EC50: read-out: Gi EC50 hMOR
[17] = molecular target: T3, mouse mu opioid receptor (mMOR); test: cell-based; assay type: cell-based
mDOR [18] = molecular target: T5, mDOR; test: Radioligand competition binding ([125I]IBNtxA), CHO membranes, mDOR; settings: vs 125IBNtxA (0.1 nM), CHO membranes, mean ± SEM

## O=C(N[C@@H]1CC[C@@]2(O)[C@H]3Cc4ccc(O)c5c4[C@@]2(CCN3CC2CC2)[C@H]1O5)c1cccc(I)c1 [IBNtxA, reference compound]
mMOR [1]; [35S]GTPγS
  EC50: 0.49 ± 0.12 nM
mMOR [1]; [35S]GTPγS, relative to DAMGO
  mMOR Emax: 101 ± 3%
mKOR [2]
  Ki: 0.03 ± 0.001 nM
[3]
  Bias factor toward G-protein, mMOR: 404
  Gi Emax mMOR: 59±2.2
  Gi pEC50±SEM mMOR: 10.3±0.02
  EC50: 0.054 nM
[4]; mDOR, BRET
  EC50: 0.48 nM
  G-Protein activation pEC50 ± SEM: 9.3 ± 0.10
[4]; mDOR, BRET, normalized to DPDPE
  G-Protein activation Emax % ± SEM: 108 ± 3.7%
mDOR [5]; [35S]GTPγS
  EC50: 4.08 ± 0.67 nM
mDOR [5]; [35S]GTPγS, relative to DPDPE
  mDOR Emax: 95 ± 2%
hMOR [6]; Tango
  Arrestin pEC50±SEM hMOR: 8.2±0.002
  EC50: 5.86 nM
hMOR [6]; Tango, normalized to Emax of DAMGO
  Arrestin Emax hMOR: 29±0.02
mMOR [7]
  Ki: 0.11 ± 0.02 nM
hDOR [8]; hDOR, Tango
  Arrestin recruitment pEC50 ± SEM: 7.8 ± 0.06
  EC50: 14.1 nM
hDOR [8]; hDOR, Tango, normalized to DPDPE or DADLE
  Arrestin recruitment Emax % ± SEM: 224 ± 5%
mKOR [9]; [35S]GTPγS
  EC50: 0.22 ± 0.02 nM
mKOR [9]; [35S]GTPγS, relative to U50,488H
  mKOR Emax: 102 ± 4%
[10]
  Arrestin pEC50±SEM rKOR: 8.9±0.02
  EC50: 1.23 nM
[10]; normalized to Emax of U50,488H
  Arrestin Emax rKOR: 133±7.3
[11]
  Arrestin recruitment pEC50 ± SEM: 7.5 ± 0.2
  EC50: 26.6 nM
[11]; normalized to DPDPE
  Arrestin recruitment Emax % ± SEM: 88 ± 6.8%
[12]; BRET
  Gi pEC50±SEM rKOR: 10.2±0.1
[12]; BRET assays, against U50,488H as control
  Bias factor toward G-protein, rKOR: 0.6
[12]; BRET, normalized to Emax of U50,488H
  Gi Emax rKOR: 101±2.3
[12]; BRET, read-out: Gi EC50 rKOR
  EC50: 0.064 nM
hDOR [13]; hDOR
  EC50: 0.43 nM
  cAMP inhibition pEC50 ± SEM: 9.3 ± 0.03
hDOR [13]; hDOR, normalized to DPDPE or DADLE
  cAMP inhibition Emax % ± SEM: 106 ± 1%
hKOR [14]; Tango
  Arrestin pEC50±SEM hKOR: 10.9±0.07
  EC50: 0.013 nM
hKOR [14]; Tango, normalized to Emax of U50,488H
  Arrestin Emax hKOR: 109±1.8
hKOR [15]
  Bias factor toward G protein, hKOR: 0.2
hKOR [15]; cAMP inhibition, normalized to Emax of U50,488H
  Gi Emax hKOR: 106±0.7
hMOR [16]
  Bias factor toward G protein, hMOR: 23
  Gi Emax hMOR: 95±2
  Gi pEC50±SEM hMOR: 10.2±0.006
  EC50: 0.07 nM
[17]
  Arrestin Emax mMOR: 75±13.9
  Arrestin pEC50±SEM mMOR: 4.9±0.3
[17]; read-out: Arrestin EC50 mMOR
  EC50: 11300 nM
mDOR [18]
  Ki: 0.24 ± 0.05 nM

## CO[C@@]12CC[C@@H](NC(=O)c3cccc(I)c3)C3Oc4c(O)ccc5c4[C@@]31CCN(CC1CC1)C2C5 (stereo partly drawn) [MP1305, N-((4aS,7R,12bS)-3-(Cyclopropylmethyl)-9-hydroxy-4a-methoxy-2,3,4,4a,5,6,7,7a-octahydro-1H-4,12-methanobenzofuro[3,2-e]isoquinolin-7-yl)-3-iodobenzamide]
mMOR [1]
  Emax: 81.2 ± 16%
mMOR [1]; [35S]GTPγS
  EC50: 0.7 ± 0.1 nM
mKOR [2]
  Ki: 2.5 ± 0.3 nM
[3]
  Gi pEC50±SEM mMOR: 9.1±0.12
  EC50: 0.74 nM
[3]; read-out: Gi Emax mMOR
  Emax: 72 ± 2%
[4]; mDOR, BRET
  EC50: 40.4 nM
  G-Protein activation pEC50 ± SEM: 7.4 ± 0.20
[4]; read-out: G-Protein activation Emax % ± SEM
  Emax: 105 ± 5.9%
mDOR [5]
  Emax: 22 ± 0.9%
mDOR [5]; [35S]GTPγS
  EC50: 31.7 ± 3.6 nM
hMOR [6]
  Emax: 21 ± 3%
hMOR [6]; Tango
  Arrestin pEC50±SEM hMOR: 7.8±0.3
  EC50: 16.4 nM
mMOR [7]
  Ki: 0.25 ± 0.02 nM
hDOR [8]; hDOR, Tango
  Arrestin recruitment pEC50 ± SEM: 6.6 ± 0.06
  EC50: 228 nM
hDOR [8]; read-out: Arrestin recruitment Emax % ± SEM
  Emax: 89 ± 2.8%
mKOR [9]
  Emax: 42.2 ± 5.3%
mKOR [9]; [35S]GTPγS
  EC50: 7.4 ± 1.8 nM
[10]
  arrestin recruitment at rKOR: no arrestin recruitment was observed
[12]; BRET
  Gi pEC50±SEM rKOR: 8.3±0.32
[12]; read-out: Gi Emax rKOR
  Emax: 35 ± 3%
hDOR [13]; hDOR
  EC50: 74.2 nM
  cAMP inhibition pEC50 ± SEM: 7.1 ± 0.08
hDOR [13]; read-out: cAMP inhibition Emax % ± SEM
  Emax: 71 ± 2.4%
hKOR [14]
  Emax: 75 ± 1%
hKOR [14]; Tango
  Arrestin pEC50±SEM hKOR: 7.6±0.04
  EC50: 25.7 nM
hKOR [15]; HEK-293T, read-out: Gi Emax hKOR
  Emax: 102 ± 1.2%
hKOR [15]; cAMP inhibition
  Gi pEC50±SEM hKOR: 9.14±0.05
hKOR [15]
  Bias factor toward G protein, hKOR: 4
hMOR [16]
  Bias factor toward G protein, hMOR: 11
  Gi pEC50±SEM hMOR: 9.9±0.12
  EC50: 0.12 nM
hMOR [16]; HEK-293T, read-out: Gi Emax hMOR
  Emax: 69 ± 1.8%
[17]
  arrestin recruitment at mMOR: no arrestin recruitment was observed
mDOR [18]
  Ki: 11.7 ± 1.4 nM
